Source: ChEMBL document CHEMBL3727345, “New compounds” (2012)

Biological target: fructose-2,6-bisphosphatase 3/4 (Homo sapiens) (UniProt Q16875+Q16877)
Test: Inhibition of PFKFB3/PFKFB4 in human Panc1 cells assessed as fructose -2,6-bisphosphate production at 12.5 uM preincubated for 1 hr followed by addition of D-glucose measured after 2 hrs by spectrophotometry
Type: cell-based
Details: PANC-1

Chain of fructose-2,6-bisphosphatase 3/4 (Homo sapiens) (Q16875 whole entry, looked up): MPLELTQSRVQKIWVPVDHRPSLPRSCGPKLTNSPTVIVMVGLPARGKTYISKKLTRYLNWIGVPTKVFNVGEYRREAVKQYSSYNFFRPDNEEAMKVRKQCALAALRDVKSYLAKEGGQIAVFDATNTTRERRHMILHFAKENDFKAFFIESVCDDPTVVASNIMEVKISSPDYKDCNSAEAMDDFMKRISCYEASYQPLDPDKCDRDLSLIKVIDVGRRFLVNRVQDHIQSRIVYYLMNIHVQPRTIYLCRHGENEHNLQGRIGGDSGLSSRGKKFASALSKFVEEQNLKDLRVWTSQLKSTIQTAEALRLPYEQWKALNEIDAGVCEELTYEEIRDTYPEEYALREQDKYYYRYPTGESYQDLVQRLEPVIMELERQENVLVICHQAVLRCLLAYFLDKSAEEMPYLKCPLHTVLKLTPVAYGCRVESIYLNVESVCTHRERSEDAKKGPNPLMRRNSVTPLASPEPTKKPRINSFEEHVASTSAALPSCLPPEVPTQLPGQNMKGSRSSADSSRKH
Chain of fructose-2,6-bisphosphatase 3/4 (Homo sapiens) (Q16877 whole entry, looked up): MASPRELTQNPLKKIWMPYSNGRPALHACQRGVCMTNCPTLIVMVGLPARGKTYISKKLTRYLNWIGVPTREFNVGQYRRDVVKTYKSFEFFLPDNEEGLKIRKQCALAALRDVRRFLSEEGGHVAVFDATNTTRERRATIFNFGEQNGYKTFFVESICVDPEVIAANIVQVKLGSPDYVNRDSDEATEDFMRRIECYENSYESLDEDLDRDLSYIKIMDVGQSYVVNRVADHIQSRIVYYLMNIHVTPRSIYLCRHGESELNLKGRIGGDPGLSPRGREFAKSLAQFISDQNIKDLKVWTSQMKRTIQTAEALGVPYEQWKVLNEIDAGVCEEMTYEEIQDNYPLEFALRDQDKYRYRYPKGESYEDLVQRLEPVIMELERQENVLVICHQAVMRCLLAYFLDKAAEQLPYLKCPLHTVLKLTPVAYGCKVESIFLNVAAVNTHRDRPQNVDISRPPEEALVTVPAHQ

inhibition [%] | Structure (SMILES)
> 50 | CCOC(=O)c1sc(NS(=O)(=O)c2sc3ccc(Cl)cc3c2C)nc1C
> 50 | CCOC(=O)c1cccc(NS(=O)(=O)c2sc3ccc(Cl)cc3c2C)c1
> 50 | Cc1c(S(=O)(=O)Nc2cccc(C(=O)Oc3ccccc3)c2)sc2ccc(Cl)cc12
> 50 | Cc1c(S(=O)(=O)Nc2cccc(C(=O)OCCn3cccc3)c2)sc2ccc(Cl)cc12
> 50 | COC(=O)c1cccc(NS(=O)(=O)c2oc3ccc(C(C)C)cc3c2C)c1
> 50 | CCOC(=O)c1sc(NS(=O)(=O)c2cc(-c3cc(F)ccc3F)c(Cl)s2)nc1C
> 50 | Cc1c(S(=O)(=O)Nc2cccc(C(=O)OCc3ccccc3)c2)sc2ccc(Cl)cc12
> 50 | COCCOC(=O)c1cccc(NS(=O)(=O)c2sc3ccc(Cl)cc3c2C)c1
> 50 | Cc1c(S(=O)(=O)Nc2cccc(C(=O)OCC3CCOC3)c2)sc2ccc(Cl)cc12 (stereo not given)
> 50 | CCCCCOC(=O)c1cccc(NS(=O)(=O)c2sc3ccc(Cl)cc3c2C)c1
